≈ marks a conversion by molar mass, not a printed value. Like-named read-outs stand apart in the source and are kept apart here. Non-standard residues stand in square brackets, D forms with d. Residues, ends and D or L forms follow the SMILES beside them. d1Nal = N[C@H](Cc1cccc2ccccc12)C(=O)O
Experiments:
[1] = tested on: P. acnes strain (ATCC 6919); conditions: ATCC 6919
[2] = tested on: conscious telemetered cynomolgus monkeys; assay: Cardiovascular safety pharmacology test, intravenous infusion, telemetry; assay type: in vivo, cynomolgus monkey
Protocol: This safety pharmacology test was performed to assess the possible cardiovascular effects of XMP.629 when administered via intravenous infusion. The test was an acute experiment to identify single-dose-induced side-effects as indicated, for example, in the Guideline for General Pharmacology Studies (Japan Ministry of Health and Welfare PAB/NND Notification No. 4, Jan. 29, 1995, the disclosure of which is incorporated herein by reference).
A telemetry device/transmitter (Data Sciences, St. Paul, Minn.) was surgically implanted in the subcutaneous pocket over the mid-abdominal region into the test monkeys. The blood pressure catheter of the telemetry device was run sub-cutaneously to the left groin region and inserted into the left femoral artery, with the catheter tip placed into the abdominal aorta. In addition, electrocardiogram leads were sub-cutaneously tunneled to the appropriate anatomical regions (i.e. negative lead paced at the base of the right side of the neck and the positive lead placed within the 5th intercostals space on the left side of the thoracic cage, near the sternum).
Intravenous administration of XMP.629 was given to conscious cynomolgus primates (four males) via telemetry systems in a series of 4 acute experiments, in which escalating doses were administered over four days, with a 3 to 27-day washout period between doses. Doses were administered over a two-hour period, at a rate of 2 mL/kg/hr. The vehicle, 10 mM sodium acetate buffer, was administered on Day 0, and XMP.629 at dose levels of 5, 10, and 20 mg/kg/2 hrs on days 4, 7, and 34, respectively. The infused volume per dose was calculated using the most recent body weight measurements.
Viability checks were performed twice daily on the animals. Body weights were obtained from the animals on the day of surgery and one or two days prior to each dose. Cardiovascular assessments and body temperature measurements were collected radiotelemetrically using the implanted telemetry device/transmitter for one 24 hour period prior to the Day 0 dosing session at the same frequency/periods collected on the days of dosing. On each day of dosing, the effect of XMP.629 on various physiological parameters, such as blood pressure waveform, systolic pressure, diastolic pressure, mean pressure, ECG (axial lead) waveform, heart rate, body temperature, QA interval, P-R interval, QRS interval, QT interval, R—R interval, and QTC interval, was observed two hours before the dosing period, every five minutes for 120 minutes during each infusion period, and for 22 hours after termination of infusion (once every five minutes for one hour and then once every 30 minutes for the remaining 21 hours). […]

[3] = tested on: guinea pigs, Crl:(HA)BR (Albino Hartley); assay: Guinea pig sensitization (maximization) test; assay type: in vivo
Protocol: A sensitization (maximization) study was performed to evaluate the potential of XMP.629 to elicit skin sensitization reactions, such as allergic contact dermatitis, in guinea pigs via intradermal injection and topical patch applications. Procedures for conducting dermal studies that determine the potential of substances to induce delayed contact hypersensitivity are well-known and are described, for example, in Magnusson, B. et al., Allergic Contact Dermatitis in the Guinea Pig, Charles C. Thomas Publishing, Springfield, Ill., 1970 and Klecak, G., “Test Methods for Allergic Contact Dermatitis in Animals”, Dermatoxicology, 5th Edition, Taylor & Francis Publishing, Washington D.C., pages 437-459, the disclosures of which are incorporated herein by reference. A total of forty two-month old guinea pigs, twenty male and twenty female, from the strain CrI:(HA)BR(Albino Hartley) were employed for the entire regimen of the sensitization study.
First, a preliminary range-finding test was conducted to determine the test concentration of XMP.629 to be used in the second test, induction phase intradermal injection and topical patch application tests. The range-finding test was performed (i) intradermally on two guinea pigs (one male and one female) by injecting concentrations of 2, 4, 8, 16, and 20 mg/mL XMP.629; and (ii) topically on three guinea pigs (two males and one female) by administering patches containing concentrations of 5, 10, 15, and 20 mg/mL XMP.629. […] Topical patches were prepared by spreading a thick even layer of 0.4 mL of XMP.629 over a 2×2 cm of Whatman No.3 filter paper. Topical patches were applied to the torso of the guinea pig and covered by an overlapping plastic adhesive tape followed by additional wrapping tape. After a 24 hour exposure period, the patches were removed and the application sites were washed to removed any excess XMP.629 that may be present. […] Intradermal injection sites and topical application sites were evaluated using a sensitization grade rating. […] Each site could attain a maximum possible score of 3, as scored according to the rating listed below: • 0=No reaction • 1=Scattered mild erythema • 2=Moderate and diffuse erythema • 3=Intense erythema and edema
The second induction phase test was conducted as a two-stage operation with intradermal injections initially being administered followed one week later by exposure to a closed patch. […] Following a period of 24 and 48 hours, evaluations of the injection area were recorded. […] Dermal irritation scores of one or higher were recorded for doses of 8 mg/mL of XMP.629.
A third, challenge (maximization) test was performed two weeks (day 22) after initiation of the second, induction phase tests. […] Patches were sealed to the flanks for approximately 24 hours before observations were recorded.

S. aureus = assay: Comparison of XMP.629 with standard topical agents (MIC90/MBC); assay type: cell-based, Staphylococcus aureus
Protocol: Control tubes containing only water or formulation buffer were prepared for each isolate. Initial growth controls were determined by removing 10 μL from the water control tube and diluting it by 100 fold. From this dilution, 10 μL was used for inoculation and for spreading over the surface onto Laked Blood Agar (LBA) (Anaerobe Systems, Morgan Hill, Calif.) plates. The tubes and plates were incubated in an anaerobic atmosphere at 37° C. for 48 h. […] MBC50 and 90 values represent where 50 and 90%, respectively, of the tested strain's MBC values are equal to or less than the indicated concentration.

CC(C)C[C@@H](NC(=O)[C@H](N)CCCCN)C(=O)N[C@H](Cc1ccccc1)C(=O)N[C@H](CCCNC(=N)N)C(=O)N[C@H](Cc1cccc2ccccc12)C(=O)N[C@H](CCC(N)=O)C(=O)N[C@H](C)C(=O)N[C@H](CCCCN)C(=O)N[C@H](Cc1cccc2ccccc12)C(N)=O [XMP.629, NH2-lys-leu-phe-arg-(3-(1-naphthyl)-ala)-gln-ala-lys-(3-(1-naphthyl)-ala)-CONH2] (H-[dK][dL][dF][dR][d1Nal][dQ][dA][dK][d1Nal]-NH2)
MIC/MBC [1]: >4 µg/mL | Prolongation in prothrombin and activated partial thromboplastin times with decreases in fibrinogen ([2]; 20 mg/kg/2 hrs): 2 of 4 animals | heart rate, QA, P-R, QRS, and R-R intervals ([2]; 5, 10, or 20 mg/kg/2 hrs): no effects | cardiac findings ([2]; 10 or 20 mg/kg/2 hrs): ventricular extrasystoles and premature ventricular beats | intravenous infusion dose with no adverse, related-effect ([2]; cynomolgus monkey, in vivo, iv): 5 mg/kg/2 hrs | skin sensitization, overall ([3]; 10 mM sodium acetate solution, topical patch challenge): weak skin sensitizing response | Dermal irritation scores ([3]; doses of 8 mg/mL): one or higher | highest non-irritating dose ([3]; induction phase tests): 4 mg/mL | challenge phase score ([3]; topical patch 4 mg/mL): did not score higher than one | MIC90, XMP.629 data reported as MBC values (S. aureus): 8 µg/mL (≈ 6.23 µM) | MIC90, XMP.629 data reported as MBC values (S. aureus; in FB (formulation buffer)): 0.06 µg/mL (≈ 0.0467 µM)
